Among the test systems are 786-0 renal; A498 renal; A549 NSCLC; ACHN renal; BT-549 breast; CAKI-1 renal; CCRF-CEM leukemia; COLO 205 colon; DU-145 prostate; EKVX NSCLC; HCC-2998 colon; HCT-116 colon; HCT-15 colon; HL-60(TB) leukemia; HOP-62 NSCLC; HOP-92 NSCLC; HS 578T breast; HT29 colon; IGROV1 ovarian; K-562 leukemia; KM12 colon; LOX IMVI melanoma; M14 melanoma; MALME-3M melanoma; MCF7 breast; MDA-MB-231 breast; MDA-MB-435; MDA-MB-468 breast; MOLT-4 leukemia; NCI-H226 lung; NCI-H23 lung; NCI-H460 lung; NCI-H522 lung; NCI/ADR-RES ovarian; OVCAR-4 ovarian; OVCAR-5 ovarian; OVCAR-8 ovarian; PC-3 prostate; RPMI-8226 leukemia; RXF 393 renal; SF-268 CNS; SF-295 CNS; SF-539 CNS; SK-MEL-2 melanoma; SK-MEL-28 melanoma; SK-MEL-5 melanoma; SK-OV-3 ovarian; SN12C renal; SNB-19 CNS; SNB-75 CNS; SR leukemia; SW-620 colon; T-47D breast; TK-10 renal; U251 CNS; UACC-257 melanoma; UACC-62 melanoma; UO-31 renal.

Assay in all cases: NCI-60 cell line screen, 48 h

Data on six compounds can be found in PubChem BioAssay (NCI).

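Interpolation was linear, between the two tested concentrations surrounding the appropriate level; five concentrations were tested over 48 hours in 96-well plates. At the GI50, growth is halved. TGI is the concentration that stops growth completely.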

Consider `C=C(c1ccc(OC)c(N)c1)c1cc(C)nc2ccccc12`, for which the GI50 is under 10 nM in the assay on 786-0 renal; 36800 nM in the assay with A498 renal; under 10 nM in the assay on A549 NSCLC; under 10 nM in the assay with ACHN renal; under 10 nM in the assay with BT-549 breast; under 10 nM with CAKI-1 renal. The GI50 in the assay with CCRF-CEM leukemia, in the assay with COLO 205 colon, with DU-145 prostate, with EKVX NSCLC, in the assay with HCC-2998 colon and in the assay on HCT-116 colon was under 10 nM in each case. Besides, the GI50 in the assay on HCT-15 colon is under 10 nM; in the assay on HL-60(TB) leukemia, under 10 nM; with HOP-62 NSCLC it was under 10 nM; in the assay with HOP-92 NSCLC, 180 nM; in the assay on HS 578T breast, under 10 nM; in the assay on HT29 colon, under 10 nM. The GI50 with IGROV1 ovarian, in the assay on K-562 leukemia, in the assay on KM12 colon, in the assay with LOX IMVI melanoma, with M14 melanoma and in the assay on MALME-3M melanoma was under 10 nM each time. Further, the GI50 was under 10 nM in the assay on MCF7 breast; under 10 nM in the assay on MDA-MB-231 breast; under 10 nM in the assay on MDA-MB-435; under 10 nM in the assay on MDA-MB-468 breast; under 10 nM in the assay on MOLT-4 leukemia; under 11.5 nM with NCI-H226 lung. Further, the GI50 was under 10 nM in the assay on NCI-H23 lung; under 10 nM in the assay on NCI-H460 lung; under 10 nM in the assay on NCI-H522 lung; under 10 nM with NCI/ADR-RES ovarian; 7410 nM with OVCAR-4 ovarian; under 10 nM with OVCAR-5 ovarian. In addition, the GI50 in the assay with OVCAR-8 ovarian, with PC-3 prostate, in the assay with RPMI-8226 leukemia, in the assay on RXF 393 renal, with SF-268 CNS and in the assay with SF-295 CNS was under 10 nM in each case. Besides, the GI50 in the assay on SF-539 CNS, with SK-MEL-2 melanoma, in the assay with SK-MEL-28 melanoma, in the assay with SK-MEL-5 melanoma, with SK-OV-3 ovarian and in the assay with SN12C renal was under 10 nM each time. Besides, the GI50 is under 10 nM in the assay with SNB-19 CNS; under 10 nM in the assay with SNB-75 CNS; under 10 nM in the assay with SR leukemia; under 10 nM with SW-620 colon; 12600 nM in the assay with T-47D breast; 18700 nM in the assay with TK-10 renal. Moreover, the GI50 in the assay on U251 CNS is under 10 nM; in the assay on UACC-257 melanoma it was 3980 nM; in the assay with UACC-62 melanoma, under 10 nM; in the assay on UO-31 renal, under 10 nM. Besides, the TGI in the assay on 786-0 renal is over 100000 nM; with A498 renal, over 100000 nM; in the assay with A549 NSCLC, over 100000 nM; in the assay with ACHN renal it was 61900 nM; in the assay with CAKI-1 renal it was over 96200 nM; in the assay with COLO 205 colon it was under 10 nM. Also, the TGI was over 100000 nM with DU-145 prostate; over 51600 nM in the assay on EKVX NSCLC; 466 nM in the assay on HCC-2998 colon; over 100000 nM in the assay with HCT-116 colon; under 10 nM in the assay with HL-60(TB) leukemia; over 100000 nM in the assay with HOP-62 NSCLC. Besides, the TGI was 43000 nM in the assay with HOP-92 NSCLC; over 100000 nM in the assay on HS 578T breast; under 10 nM in the assay with HT29 colon; over 100000 nM in the assay with IGROV1 ovarian; over 93000 nM in the assay on K-562 leukemia; 11500 nM with KM12 colon. The TGI in the assay on LOX IMVI melanoma was 27400 nM; in the assay on M14 melanoma it was 15200 nM; in the assay with MALME-3M melanoma, 31600 nM; with MCF7 breast, over 37100 nM; in the assay with MDA-MB-231 breast, under 10 nM; in the assay with MDA-MB-435, 118 nM. For the same compound, the TGI was 76300 nM in the assay with MDA-MB-468 breast; 26600 nM in the assay with MOLT-4 leukemia; over 100000 nM in the assay on NCI-H226 lung; 36100 nM in the assay on NCI-H23 lung; over 32000 nM in the assay on NCI-H460 lung; under 10 nM in the assay on NCI-H522 lung. Further, the TGI in the assay on NCI/ADR-RES ovarian was under 10 nM; in the assay with OVCAR-4 ovarian it was over 100000 nM; in the assay on OVCAR-5 ovarian, over 100000 nM; in the assay with PC-3 prostate, over 100000 nM; in the assay with RPMI-8226 leukemia, 21300 nM; in the assay on RXF 393 renal, 79000 nM. In addition, the TGI was 37400 nM in the assay with SF-268 CNS; under 10 nM in the assay with SF-539 CNS; under 10 nM in the assay with SK-MEL-2 melanoma; 98200 nM with SK-MEL-28 melanoma; under 10 nM in the assay on SK-MEL-5 melanoma; over 44900 nM in the assay on SN12C renal. The TGI with SNB-19 CNS is over 100000 nM; in the assay on SNB-75 CNS, 83700 nM; in the assay on SR leukemia it was 34600 nM; in the assay on SW-620 colon, over 100000 nM; in the assay on T-47D breast, over 100000 nM; in the assay with TK-10 renal, over 100000 nM. The TGI with U251 CNS was over 100000 nM; with UACC-257 melanoma, 75000 nM; with UACC-62 melanoma, 22400 nM; in the assay on UO-31 renal it was 64600 nM.
Regarding `COc1ccc(-c2ccc(-c3ccc(C(=N)N)o3)o2)cc1`, in the assay on MDA-MB-468 breast, the GI50 was 864 nM and the TGI came to 2840 nM.
For `OC(c1cc(C23CC4CC(CC(C4)C2)C3)nc2c(Cl)cc(Cl)cc12)C1CCCCN1` (stereo not given), in that order: 1480 nM and 2810 nM.
Take `Cc1cc(N2CCOCC2)cc2[nH]c(-c3c(NC[C@@H](O)c4cccc(Cl)c4)cc[nH]c3=O)nc12`: in the assay on MDA-MB-468 breast, the GI50 is 3650 nM and the TGI was 14000 nM.
On to `CCNC(=O)O[C@H]1CN[C@H](C#Cc2cc3ncnc(Nc4ccc(OCc5cccc(F)c5)c(Cl)c4)c3s2)C1`, for which, in the assay on MDA-MB-468 breast, the GI50 is 155 nM and the TGI stood at 1920 nM.
For `Cc1ncc(C(=O)Nc2ccc(CN3CCN(C)CC3)c(C(F)(F)F)c2)cc1C#Cc1cnc(N)cc1C#N`, in that order: 1290 nM and 3780 nM.
